Experimental data published in patent US9902713B2, “Neuroprotective compounds and use thereof” (BOARD OF REGENTS OF THE UNIVERSITY OF TEXAS SYSTEM, priority 2013, dated 2018).

Assays:
[1] = tested on: motor neurons in the spinal cord; conditions: previously reported; cited from earlier work
[2] = tested on: dopaminergic neurons within the substantia nigra; conditions: previously reported; cited from earlier work
[3] = tested on: cultured cortical neurons; assay: 6-OHDA toxicity in cultured neurons (MTT); format: cell-based; conditions: 10 μM compound
Description: (§1) A rat model of Parkinson's disease, incuded by 6-hydroxydopamine (6-OHDA) was used to test various compounds As shown in FIGS. 33A-33D, P7C3-S243 protects cultured hippocampal and cortical neurons from 6-OHDA toxicity. […] (FIG. 33B) The average number of hippocampal neurons in the 10 μM P7C3-S243 treatment group was not different from the average number of hippocampal neurons treated with medium alone or with DMSO+Ascorbic acid (one-way ANOVA). […] The average number of cortical neurons in the 10 μM P7C3-S243 treatment group was not different from the average number of cortical neurons treated with medium alone or with DMSO+Ascorbic acid (one-way ANOVA). Experiments were performed two independent times, with 8-12 replicates of each sample both times.

[4] = tested on: cultured hippocampal neurons; assay: 6-OHDA toxicity in cultured neurons (MTT); format: cell-based; conditions: 10 μM compound
Description: as §1

blood-brain barrier = assay: Blood brain barrier permeability assay (Evans blue); format: in vivo; conditions: sham-injured mice, 3 days of daily treatment
Excerpt: On the basis of the promising results seen with administration of P7C3-A20 or P7C3-S243 immediately after injury, we sought to determine whether P7C3-S243 could offer protective efficacy when treatment was initiated later. Because TBI can disrupt the blood-brain barrier (BBB), we first examined BBB integrity over time by means of the Evans blue assay. Evans blue is an azo dye with tight affinity for albumin, such that in serum virtually all Evans blue is albumin-bound. Normally, serum albumin cannot cross the BBB. However, when the BBB is compromised, albumin and its bound Evans blue can enter the CNS. The magnitude of Evans blue accumulation in the brain can then be spectrophotometrically determined in order to monitor disruption of the BBB (Uyama et al., 1988; Hawkins and Egleton, 2006). With this technique, we observed significant disruption of the BBB 6 hours after blast-injury, with integrity of the BBB recovering to normal 18 hours later (FIG. 21B).
Blood brain barrier (BBB) permeability assay. […] To quantify the extravasation of albumin-bound EBD in each brain, tissue was weighed and incubated for 30 minutes at room temperature in 50% Tricholoracetic acid (TCA) in PBS at a 3:1 μl/mg ratio. […] Fluorescence was measured using a SpectraMax M2^e (Molecular Devices) in 100 μl of samples plated on a 96-well plate at excitation wavelength of 620 nm and an emission wavelength of 680 nm.

blast-injured mice = assay: Foot slip assay after blast-injury; format: in vivo; conditions: 28 days after injury, daily oral 6 mg/kg/day from 24 hours
Excerpt: Because the cerebellum controls coordination, we next assayed their balance and coordination, using standard procedures (Luong et al., 2011). Mice were trained to cross an 80 cm long beam over 2 days, and then sham or blast-injured on day 3. […] Mice were videotaped during the test, and then analyzed for the number of foot slips by observers blind to treatment group. […] Thus, protective efficacy for cerebellar axonal degeneration after injury by (−)-P7C3-S243 correlated with preservation of motor coordination.
Foot slip assay. We used standard procedures described by Luong et al. (2011) to measure motor balance coordination. During the training period, mice were trained to cross the 80 cm beam to enter a black box with nesting material 3 times a day over 2 consecutive days. Mice were then sham-or blast-Injured on the next day. 24 hrs after injury, daily administration with (−)-P7C3-S243 or vehicle was initiated. Animals were then tested 7 and 28 days after injury. Mice performance was videotaped during the test and foot slips were analyzed by an observer blind to condition and treatment group.

[5] = tested on: hippocampal CA1 neurons, myelin and mitochondria; assay: Toluidine blue staining and TEM of hippocampus after blast-injury; format: in vivo, mice
Description: To further examine hippocampal structural pathology, we turned to ultrathin ([…]) section histology using toluidine blue staining, as well as transmission electron microscopy (TEM) (FIG. 31). […] In blast-injured animals, however, we observed accumulation of chromatolytic and pyknotic neurons in the CA1 stratum pyramidale, accompanied by decreased dendritic extensions in the stratum radiatum, indicating general ongoing pathologic processes associated with neurodegeneration and consistent with our electrophysiologic data in FIG. 17.
The stratum radiatum is where CA3 Schaeffer collateral axons synapse with dendrites of CA1 pyramidal cells. This was the circuit we investigated electrophysiologically (FIG. 17), and we next turned to TEM to further characterize blast-injury induced axonal degeneration. […] These axons contained intact and healthy-appearing mitochondria.
Toluidine blue staining and transmission electron microscopy (TEM). Mice were transcardially perfused with Karnovsky's fixative solution (2% formaldehyde, 2.5% glutaraldehyde, 0.2M sodium cacodylate buffer, 1 mM CaCl2, 2 mM MgCl2, and 42.8 mM NaCl, pH 7.4) two weeks after either sham- or blast-Injury and with or without specified compound treatment. Harvested brains were incubated in Karnovsky's overnight at 4° C. Whole brains were cut in the horizontal plane (100 μm) using a vibratome (Leica 1500). Sections that contained the hippocampus were selected, washed with 0.1M sodium cacodylate buffer and then post fixed with 1% osmium fixative for 1 hr. After washing in 0.1M sodium cacodylate buffer, sections were dehydrated in a series of ethanol (50%, 75%, 95% and 100% ethanol) followed by embedding in EPON resin overnight at 65° C. For toluidine blue staining, semithin sections (1 μm) were cut with an ultramicrotome (Leica UC6) and stained with toluidine blue. Pictures were taken using an upright microscope (Zeiss Axio Imager.M2) with a color camera (AxioCam ICc5). For TEM, ultrathin sections (60 nm) adjacent to the semithin sections were cut with an ultramicrotome, loaded onto a Formvar 200-mesh Ni grid, and counterstained with uranyl acetate and lead citrate. Specimens were examined using a JEOL JEM 1230 electron microscope with a Gatan UltraScan 1000 2 k×2 k CCD camera. See also FIG. 31.

[6] = target: (Homo sapiens, UniProt P10635); assay: Cytochrome P450 inhibition; format: in vitro ADME; conditions: 3D6
[7] = tested on: 47 neuronal receptors and channels; assay: NIH Psychoactive Drug Screening Program panel; format: binding
[8] = blast-injured, oral 0.3 mg/kg/day

Chain of (Homo sapiens, UniProt P10635) (P10635 whole entry): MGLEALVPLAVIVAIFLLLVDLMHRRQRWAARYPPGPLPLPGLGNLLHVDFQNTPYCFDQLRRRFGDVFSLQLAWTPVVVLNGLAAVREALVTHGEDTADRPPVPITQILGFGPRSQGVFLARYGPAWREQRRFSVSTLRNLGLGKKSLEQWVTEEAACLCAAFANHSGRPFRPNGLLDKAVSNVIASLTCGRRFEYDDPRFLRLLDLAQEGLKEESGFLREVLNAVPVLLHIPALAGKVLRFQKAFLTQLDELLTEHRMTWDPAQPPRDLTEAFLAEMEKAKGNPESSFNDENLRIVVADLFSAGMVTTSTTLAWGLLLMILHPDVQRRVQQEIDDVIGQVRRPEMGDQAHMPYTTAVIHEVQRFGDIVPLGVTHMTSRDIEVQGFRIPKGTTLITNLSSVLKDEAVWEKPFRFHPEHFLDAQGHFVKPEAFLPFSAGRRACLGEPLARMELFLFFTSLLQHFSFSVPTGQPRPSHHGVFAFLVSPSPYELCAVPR

COc1cccc(NCC(F)Cn2c3ccc(Br)cc3c3cc(Br)ccc32)c1 (stereo not drawn) [P7C3-A20, N-(3-(3,6-dibromo-9H-carbazol-9-yl)-2-fluoropropyl)-3-methoxyaniline]
motor neuron cell death in the spinal cord [1]: minimize motor neuron cell death
protection of substantia nigra neurons from MPTP (earlier report) [2]: protect neurons in the substantia nigra

COc1cccc(NCC(F)Cn2c3ccc(Br)cc3c3cc(Br)ccc32)n1 (racemic) [P7C3-S243, N-(3-(3,6-dibromo-9H-carbazol-9-yl)-2-fluoropropyl)-6-methoxypyridin-2-amine]
average number of neurons vs medium or DMSO+Ascorbic acid [3]: not different
protection (MTT) ([3]; 50 μM and 75 μM 6-OHDA): significant protection
average number of neurons vs medium or DMSO+Ascorbic acid [4]: not different
protection (MTT) ([4]; 50 μM 6-OHDA, 24 hrs): significant protection
BBB integrity (blood-brain barrier): did not compromise BBB integrity

COc1cccc(NCC(F)Cn2c3ccc(Br)cc3c3cc(Br)ccc32)n1 (single isomer, unassigned; (-)) [(−)-P7C3-S243, (−)-N-(3-(3,6-dibromo-9H-carbazol-9-yl)-2-fluoropropyl)-6-methoxypyridin-2-amine]
increase in number of foot slips (blast-injured mice): normalized
CA1 histology (toluidine blue) [5, 8]: these same pathologic features were present
axons and neuronal mitochondria (TEM) [5, 8]: degenerating axons with characteristic unraveling of the myelin sheath
axons and neuronal mitochondria (TEM) ([5]; blast-injured, oral 3 mg/kg/d): partial resolution of pathological signs
CA1 histology (toluidine blue) ([5]; blast-injured, oral 3 mg/kg/day): partially preserve dendritic extension
CA1 histology (toluidine blue) ([5]; blast-injured, oral 30 mg/kg/d): fully preserved all structural aspects
axons and neuronal mitochondria (TEM) ([5]; blast-injured, oral 30 mg/kg/d): full protection
CA1 histology (toluidine blue) ([5]; sham-injured, oral 30 mg/kg/d): did not change
axons and neuronal mitochondria (TEM) ([5]; sham-injury, oral 30 mg/kg/d): normally myelinated axons
sensitivity of cytochrome P450 [6]: insensitive
binding partners among 47 neuronal receptors and channels [7]: no compelling binding partners were identified
